In EPA's ToxValDB 9.5 (doi:10.2903/j.efsa.2018.5150):
In brackets after ≈: the same amount, converted by molar mass.

Legend:
Aphidius rhopalosiphi = assay: LR50; higher = less toxic; conditions: acute; mortality
Colinus virginianus = conditions: acute; oral; mortality
Folsomia candida = conditions: chronic/long-term; duration: 28 days; reproduction
Oncorhynchus mykiss = conditions: acute; duration: 96 hours; mortality
Bibionidae = conditions: chronic/long-term; duration: 28 days
Apis mellifera = conditions: acute, mortality
Daphnia magna = conditions: chronic/long-term; duration: 21 days
Tagia sp. = conditions: chronic/long-term; duration: 56 days; reproduction
Anas platyrhynchos = conditions: reproductive

CCOC(=O)Nc1cccc(OC(=O)Nc2ccccc2)c1 [Desmedipham] gave an LR50 (Aphidius rhopalosiphi) of 63.8 g/ha, an LD50 (Colinus virginianus) of over 2000 mg/kg-day and an NOEC (Folsomia candida) of 158 mg/kg. The LC50 (Oncorhynchus mykiss) was 1.41 µg/mL (≈ 4.7 µM), the NOEC (Bibionidae) was 0.14 mg/L and the LD50 (Apis mellifera; dermal) was over 100 µg/piece. The LD50 (Apis mellifera; oral, unspecified) was over 101 µg/piece, the NOEC (Daphnia magna) was 0.02 mg/L and the LD50 (Rattus norvegicus; acute, oral, mortality) was over 5000 mg/kg-day. The NOAEL (Rattus norvegicus; chronic, duration: 2 years, hematological) was 3.2 mg/kg-day, the NOAEL (Rattus norvegicus; reproduction developmental, M, reproduction) was 4 mg/kg-day and the NOAEL (Rattus norvegicus; subchronic, duration: 90 days, oral, hematological) was 5.2 mg/kg-day. It also gave an NOEC (Tagia sp.) of 64 mg/kg and an NOAEL (Anas platyrhynchos) of 11 mg/kg-day.
